Assay results: PMC7280082 (Acta Pharmaceutica Sinica. B, 2019)

Experiments:
[1] = test system: WT HIV-1 (IIIB); test: microbe, parasite or virus in culture; format: cell-based; settings: for EC50: Human immunodeficiency virus 1, IIIB, MT4, read-out: EC50 IIIB; for SI IIIB: ratio of CC50/EC50
[2] = test system: HIV-2 strain (ROD); test: Anti-HIV-2; format: cell-based; settings: for EC50: Human immunodeficiency virus 2, MT4, read-out: EC50 ROD; for SI ROD: ratio of CC50/EC50
[3] = test system: HIV-1 L100I mutant strain; test: microbe, parasite or virus in culture; format: cell-based; settings: for SI L100I: CC50/EC50; for EC50: Human immunodeficiency virus 1, MT4, read-out: EC50 L100I; for RF L100I: ratio of EC50 (resistant viral strain)/EC50 (wild-type viral strain)
[4] = test system: HIV-1 K103N mutant strain; test: microbe, parasite or virus in culture; format: cell-based; settings: for SI K103N: CC50/EC50; for EC50: Human immunodeficiency virus 1, MT4, read-out: EC50 K103N; for RF K103N: ratio of EC50 (resistant viral strain)/EC50 (wild-type viral strain)
[5] = test system: HIV-1 Y181C mutant strain; test: microbe, parasite or virus in culture; format: cell-based; settings: for SI Y181C: CC50/EC50; for EC50: Human immunodeficiency virus 1, MT4, read-out: EC50 Y181C; for RF Y181C: ratio of EC50 (resistant viral strain)/EC50 (wild-type viral strain)
[6] = test system: HIV-1 Y188L mutant strain; test: microbe, parasite or virus in culture; format: cell-based; settings: for SI Y188L: CC50/EC50; for EC50: Human immunodeficiency virus 1, MT4, read-out: EC50 Y188L; for RF Y188L: ratio of EC50 (resistant viral strain)/EC50 (wild-type viral strain)
[7] = test system: HIV-1 E138K mutant strain; test: microbe, parasite or virus in culture; format: cell-based; settings: for SI E138K: CC50/EC50; for EC50: Human immunodeficiency virus 1, MT4, read-out: EC50 E138K; for RF E138K: ratio of EC50 (resistant viral strain)/EC50 (wild-type viral strain)
[8] = test system: HIV-1 F227L + V106A double-mutant strain; test: microbe, parasite or virus in culture; format: cell-based; settings: for SI F227L + V106A: CC50/EC50; for EC50: Human immunodeficiency virus 1, MT4, read-out: EC50 F227L + V106A; for RF F227L + V106A: ratio of EC50 (resistant viral strain)/EC50 (wild-type viral strain)
[9] = test system: HIV-1 RES056 (K103N + Y181C) double-mutant strain; test: microbe, parasite or virus in culture; format: cell-based; settings: for SI RES056: CC50/EC50; for EC50: Human immunodeficiency virus 1, MT4, read-out: EC50 RES056; for RF RES056: ratio of EC50 (resistant viral strain)/EC50 (wild-type viral strain)
[10] = molecular target: WT HIV-1 RT (Human immunodeficiency virus type 1 group M subtype B, UniProt P03366); test: Recombinant HIV-1 RT inhibitory assay; format: biochemical
[11] = test system: Kunming mice; test: Acute toxicity experiment in Kunming mice; format: in vivo; settings: single oral dose of 2000 mg/kg
[12] = In vivo pharmacokinetics in Wistar rat; settings: plasma
[13] = Cytotoxicity in mock-infected MT-4 cell cultures, MTT method; settings: human, mock-infected MT-4 cells

SMILES: Cc1cc(-c2ccc(C#N)cc2)cc(C)c1Oc1nc(NC2CCN(Cc3ccc(C(N)=O)cc3)CC2)nc2ccsc12 [Compound 26, 4-((4-((4-((4′-Cyano-3,5-dimethyl-[1,1′-biphenyl]-4-yl)oxy)thieno[3,2-d]pyrimidin-2-yl)amino)piperidin-1-yl)methyl)benzamide]
- EC50 [1]: 9.93 ± 1.27 nM
- SI IIIB [1]: 552
- EC50 [2]: > 5490 nM
- SI ROD [2]: <1
- SI L100I [3]: 521
- EC50 [3]: 10.5 ± 4.56 nM
- RF L100I [3]: 1.1
- SI K103N [4]: 910
- EC50 [4]: 6.02 ± 0.84 nM
- SI Y181C [5]: 290
- EC50 [5]: 18.9 ± 2.28 nM
- RF Y181C [5]: 1.9
- SI Y188L [6]: 229
- EC50 [6]: 23.9 ± 2.4 nM
- RF Y188L [6]: 2.4
- SI E138K [7]: 236
- EC50 [7]: 23.2 ± 8.64 nM
- RF E138K [7]: 2.3
- SI F227L + V106A [8]: 56
- EC50 [8]: 97.2 ± 25.3 nM
- RF F227L + V106A [8]: 9.8
- SI RES056 [9]: 44
- EC50 [9]: 125 ± 39.3 nM
- RF RES056 [9]: 12.6
- IC50 [10]: 182 ± 16 nM
- mortality or poisoning symptom [11]: no mortality or poisoning symptom
- AUC(0-inf) ([12]; iv, 2 mg/kg): 1340 ± 53.9 ng·h/mL
- AUC(0-t) ([12]; iv, 2 mg/kg): 1290 ± 62.7 ng·h/mL
- Cmax ([12]; iv, 2 mg/kg): 941 ± 181 ng/mL
- clearance ([12]; iv, 2 mg/kg): 25 ± 1.04 mL/min/kg
- half-life ([12]; iv, 2 mg/kg): 1.71 ± 0.24 h
- bioavailability ([12]; oral, 20 mg/kg): 33.8%
- AUC(0-inf) ([12]; po, 20 mg/kg): 4760 ± 1350 ng·h/mL
- AUC(0-t) ([12]; po, 20 mg/kg): 4360 ± 1570 ng·h/mL
- Cmax ([12]; po, 20 mg/kg): 762 ± 296 ng/mL
- Tmax ([12]; po, 20 mg/kg): 2 ± 0.32 h
- half-life ([12]; po, 20 mg/kg): 2.68 ± 0.2 h
- CC50 at 5 days [13]: 5480 ± 2120 nM

SMILES: Cc1cc(-c2cccc(C#N)c2)cc(C)c1Oc1nc(NC2CCN(Cc3ccc(C(N)=O)cc3)CC2)nc2ccsc12 [Compound 28, 4-((4-((4-((3′-Cyano-3,5-dimethyl-[1,1′-biphenyl]-4-yl)oxy)thieno[3,2-d]pyrimidin-2-yl)amino)piperidin-1-yl)methyl)benzamide]
- EC50 [1]: 23.4 ± 16.9 nM
- SI IIIB [1]: 178
- EC50 [2]: > 4170 nM
- SI ROD [2]: <1
- SI L100I [3]: 83
- EC50 [3]: 50.2 ± 10.3 nM
- RF L100I [3]: 2.1
- SI K103N [4]: 208
- EC50 [4]: 20 ± 1.2 nM
- RF K103N [4]: 0.9
- SI Y181C [5]: 81
- EC50 [5]: 51.6 ± 4.32 nM
- RF Y181C [5]: 2.2
- SI Y188L [6]: 57
- EC50 [6]: 73.4 ± 5.16 nM
- RF Y188L [6]: 3.1
- SI E138K [7]: 99
- EC50 [7]: 41.9 ± 4.56 nM
- RF E138K [7]: 1.8
- SI F227L + V106A [8]: 26
- EC50 [8]: 157 ± 6.6 nM
- RF F227L + V106A [8]: 6.7
- SI RES056 [9]: 10
- EC50 [9]: 402 ± 41.9 nM
- RF RES056 [9]: 17.2
- IC50 [10]: 202 ± 20 nM
- CC50 at 5 days [13]: 4160 ± 1750 nM

SMILES: Cc1cc(-c2ccc(C#N)cc2)cc(C)c1Oc1nc(NC2CCN(Cc3ccc(S(N)(=O)=O)cc3)CC2)nc2ccsc12 [Compound 25, 4-((4-((4-((4′-Cyano-3,5-dimethyl-[1,1′-biphenyl]-4-yl)oxy)thieno[3,2-d]pyrimidin-2-yl)amino)piperidin-1-yl)methyl)benzenesulfonamide]
- EC50 [1]: 17 ± 5.78 nM
- SI IIIB [1]: 312
- EC50 [2]: 5560 ± 42.3 nM
- SI ROD [2]: 1
- SI L100I [3]: 194
- EC50 [3]: 27.4 ± 4.41 nM
- RF L100I [3]: 1.6
- SI K103N [4]: 403
- EC50 [4]: 13.2 ± 0.33 nM
- RF K103N [4]: 0.8
- SI Y181C [5]: 173
- EC50 [5]: 30.8 ± 0.11 nM
- RF Y181C [5]: 1.8
- SI Y188L [6]: 99
- EC50 [6]: 53.6 ± 3.5 nM
- RF Y188L [6]: 3.2
- SI E138K [7]: 120
- EC50 [7]: 44.4 ± 3.62 nM
- RF E138K [7]: 2.6
- SI F227L + V106A [8]: 89
- EC50 [8]: 59.9 ± 10.2 nM
- RF F227L + V106A [8]: 3.5
- SI RES056 [9]: 51
- EC50 [9]: 103 ± 3.39 nM
- RF RES056 [9]: 6.1
- IC50 [10]: 288 ± 26 nM
- CC50 at 5 days [13]: 5310 ± 2560 nM

SMILES: COc1ccc(-c2cc(C)c(Oc3nc(NC4CCN(Cc5ccc(C(N)=O)cc5)CC4)nc4ccsc34)c(C)c2)cc1 [Compound 22, 4-((4-((4-((4′-Methoxy-3,5-dimethyl-[1,1′-biphenyl]-4-yl)oxy)thieno[3,2-d]pyrimidin-2-yl)amino)piperidin-1-yl)methyl)benzamide]
- EC50 [1]: 52.6 ± 11.4 nM
- SI IIIB [1]: 256
- EC50 [2]: 5040 ± 685 nM
- SI ROD [2]: 3
- SI L100I [3]: 50
- EC50 [3]: 268 ± 103 nM
- RF L100I [3]: 5.1
- SI K103N [4]: 230
- EC50 [4]: 58.4 ± 7.14 nM
- RF K103N [4]: 1.1
- SI Y181C [5]: 85
- EC50 [5]: 158 ± 27.3 nM
- RF Y181C [5]: 3.0
- SI Y188L [6]: 122
- EC50 [6]: 110 ± 3.57 nM
- RF Y188L [6]: 2.1
- SI E138K [7]: 90
- EC50 [7]: 149 ± 42 nM
- RF E138K [7]: 2.8
- SI F227L + V106A [8]: 45
- EC50 [8]: 297 ± 39.8 nM
- RF F227L + V106A [8]: 5.7
- SI RES056 [9]: 12
- EC50 [9]: 1120 ± 353 nM
- RF RES056 [9]: 21.4
- IC50 [10]: 233 ± 28 nM
- CC50 at 5 days [13]: 13400 ± 5940 nM
